Drawing on patent US11597739B2, “Enhancing CD8+ T cells for adoptive T cell therapy by inhibiting PTPN1 (PTP1B) and PTPN2 (TC-PTP)” (The Royal Institution for the Advancement of …, priority 2017, dated 2023), this text covers IC50 for one substance.

This assay addresses TC-PTP (Homo sapiens (Human), UniProt P17706). In words: Enzyme assay for TC-PTP. The class given is biochemical. The note with it: inhibition of TC-PTP enzymatic activity. As for the experimental part:
1) Enzyme Assay for TC-PTP
The assay was carried out at room temperature in 96 well plates. The reaction mixture in 170 μl contained 50 mM Bis-Tris (pH=6.3), 2 mM EDTA, 5 mM N,N′-dimethyl-N,N′bis(mercaptoacetyl)hydrazine (DMH) and 10 μM fluorescein diphosphare (FDP) or 6,8-difluoro-4-methylumbelliferyl phosphate (DiFMUP). 10 μl of 10 concentrations (serial dilution) of the test compound (inhibitor) dissolved in DMSO or DMSO alone for control was added to each well and the plate was mixed for 2 min. The reaction was initiated by adding 20 μl of diluted TC-PTP (50 nM for FDP, 0.5 nM for DiFMUP in 50 mM Bis/Tris (pH=6.3), 2 mM EDTA, 5 mM DMH, 20% glycerol and 0.01% Triton X-100. The phosphatase activity was followed by monitoring the appearance of the fluorescent product fluorescein monophosphate (FMP) or 6,8-difluoro-7-hydroxyl-4-coumarin (DiFMU) continuously for 15-30 min, using the Spectromax Gemini fluorescent plate reader ([…]) with excitation of 440 nm and emission at 530 nm (cutoff filter at 525 nm) for FDP and excitation at 360 nm and emission at 450 nm (cutoff filter at 435 nm) for DiFMUP. All the assays were done at least in duplicate. The initial rate of FMP or DiFMU formation is plotted against the concentration of inhibitor and the data was fitted to 4-parameter equation and the inflection point of the fit is the IC50.

Sequence of TC-PTP (P17706 whole entry, species assumed): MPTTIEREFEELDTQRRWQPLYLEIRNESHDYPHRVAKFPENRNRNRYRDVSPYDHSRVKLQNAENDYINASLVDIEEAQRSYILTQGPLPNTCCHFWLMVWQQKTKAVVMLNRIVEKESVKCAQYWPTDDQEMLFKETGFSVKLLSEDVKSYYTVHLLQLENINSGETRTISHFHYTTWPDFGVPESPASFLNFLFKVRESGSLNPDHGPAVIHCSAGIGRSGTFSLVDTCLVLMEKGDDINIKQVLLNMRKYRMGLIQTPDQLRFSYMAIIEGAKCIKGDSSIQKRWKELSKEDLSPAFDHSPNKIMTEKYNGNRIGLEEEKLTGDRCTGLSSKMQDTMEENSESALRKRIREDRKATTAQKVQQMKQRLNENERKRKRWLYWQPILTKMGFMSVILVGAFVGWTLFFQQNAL

“[(3-BROMO-7-CYANO-2-NAPHTHYL)(DIFLUORO)METHYL]PHOSPHONATE [Ex. 10]” showed a half-inhibitory concentration (IC50) of 490 nM.
